Results reported in ChEMBL document CHEMBL1201862, “PubChem BioAssay data set” (2004).
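Cells were grown in 96-well plates and exposed to each compound for 48 hours at five concentrations; endpoints were interpolated linearly between bracketing concentrations, or set to the highest concentration if not reached. The concentration for 50% growth inhibition is given as GI50.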 Calls of active or inactive are those of the source. Cut-off read from the data, not from the text of the source: active = GI50 up to about 1.1 µM and inactive = higher.

Assays:
Assay in all cases: NCI-60 cell line screen, 48 h
[1] = test system: COLO 205
[2] = test system: LXFL 529
[3] = test system: RXF 393
[4] = test system: HT-29
[5] = test system: KM-20L2
[6] = test system: OVCAR-8
[7] = test system: HCT-116
[8] = test system: OVCAR-5
[9] = test system: UACC-257
[10] = test system: DMS-273
[11] = test system: SF-539
[12] = test system: NCI-H460
[13] = test system: KM12
[14] = test system: OVCAR-4
[15] = test system: M14
[16] = test system: A549
[17] = test system: LOX IMVI
[18] = test system: CCRF-CEM

SMILES | GI50 [1] | GI50 [2] | GI50 [3] | GI50 [4] | GI50 [5] | GI50 [6] | GI50 [7] | GI50 [8] | GI50 [9] | GI50 [10] | GI50 [11] | GI50 [12] | GI50 [13] | GI50 [14] | GI50 [15] | GI50 [16] | GI50 [17] | GI50 [18]
CN1CN(C2OC(CO)C(O)C2O)c2nc(N)[nH]c(=O)c21 (stereo not given) | > 100 µM (inactive) | > 100 µM (inactive) | > 100 µM (inactive) | > 100 µM (inactive) | > 100 µM (inactive) | > 100 µM (inactive) | > 100 µM (inactive) | > 100 µM (inactive) | > 100 µM (inactive) | > 100 µM (inactive) | > 100 µM (inactive) | > 100 µM (inactive) | > 100 µM (inactive) | > 100 µM (inactive) | > 100 µM (inactive) | > 100 µM (inactive) | – | –
C[C@]12CC/C(=N\O)C=C1CC[C@@H]1C2CC[C@@]2(C)C1CC[C@@H]2OC1CCCCO1 (stereo not given in full) | 17.4 µM (inactive) | 17.2 µM (inactive) | 25.4 µM (inactive) | 14.3 µM (inactive) | 14.4 µM (inactive) | > 100 µM (inactive) | 20.1 µM (inactive) | 15.5 µM (inactive) | 20.4 µM (inactive) | 17.7 µM (inactive) | > 10 µM (inactive) | 20.4 µM (inactive) | 16.7 µM (inactive) | 15.6 µM (inactive) | 18.3 µM (inactive) | 22.6 µM (inactive) | 17.7 µM (inactive) | –
COC(=O)/C(=N\Nc1nc(S)nn1N)C(C#N)c1ccc(Cl)cc1 (stereo not given) | > 100 µM (inactive) | > 100 µM (inactive) | > 100 µM (inactive) | > 100 µM (inactive) | > 100 µM (inactive) | > 100 µM (inactive) | > 100 µM (inactive) | > 100 µM (inactive) | > 100 µM (inactive) | > 100 µM (inactive) | > 100 µM (inactive) | > 100 µM (inactive) | > 100 µM (inactive) | > 100 µM (inactive) | > 100 µM (inactive) | > 100 µM (inactive) | > 100 µM (inactive) | –
N/N=c1/nc2n(c3ncccc13)C=CNN2 | > 100 µM (inactive) | > 100 µM (inactive) | > 100 µM (inactive) | > 100 µM (inactive) | > 100 µM (inactive) | > 100 µM (inactive) | > 100 µM (inactive) | > 100 µM (inactive) | > 100 µM (inactive) | > 100 µM (inactive) | > 100 µM (inactive) | > 100 µM (inactive) | > 100 µM (inactive) | – | – | > 100 µM (inactive) | > 100 µM (inactive) | > 100 µM (inactive)
COCC1C(=O)c2cc3c(cc2C12C=CC1(C=C2)OCCO1)OCO3 (stereo not given) | 10.3 µM (inactive) | 2.49 µM (inactive) | 8.85 µM (inactive) | 3.94 µM (inactive) | 10.6 µM (inactive) | 3.58 µM (inactive) | 2.21 µM (inactive) | – | 17.9 µM (inactive) | 11.1 µM (inactive) | 15.6 µM (inactive) | 13.8 µM (inactive) | 4.57 µM (inactive) | 14.2 µM (inactive) | 3.38 µM (inactive) | 15.4 µM (inactive) | – | 0.583 µM (active)
N#CC1CCCCOCCOCCOCCOCCOCCCCCC1=O (stereo not given) | > 100 µM (inactive) | > 100 µM (inactive) | > 100 µM (inactive) | > 100 µM (inactive) | > 100 µM (inactive) | > 100 µM (inactive) | > 100 µM (inactive) | > 100 µM (inactive) | > 100 µM (inactive) | > 100 µM (inactive) | – | > 100 µM (inactive) | > 100 µM (inactive) | > 100 µM (inactive) | > 100 µM (inactive) | > 100 µM (inactive) | > 100 µM (inactive) | > 100 µM (inactive)
COc1c(C)cc2c(c1O)C1C3[C@H]4SC[C@@]5(NCCC6=C5NC5C=CC=CC65)C(=O)OCC(c5c6c(c(C)c(OC(C)=O)c54)OCO6)N3[C@@H](O)C(C2)N1C (stereo not given in full) | < 0.01 µM (active) | < 0.01 µM (active) | < 0.01 µM (active) | < 0.01 µM (active) | < 0.01 µM (active) | < 0.01 µM (active) | < 0.01 µM (active) | – | < 0.01 µM (active) | < 0.01 µM (active) | < 0.01 µM (active) | < 0.01 µM (active) | – | – | < 0.01 µM (active) | < 0.01 µM (active) | < 0.01 µM (active) | < 0.01 µM (active)
Cc1cc(Br)cc(C)c1NC(=O)C(=O)C(C(=O)c1ccncc1)C1OC(=O)c2ccccc21 (stereo not given) | > 100 µM (inactive) | > 100 µM (inactive) | > 100 µM (inactive) | – | > 100 µM (inactive) | > 100 µM (inactive) | > 100 µM (inactive) | > 100 µM (inactive) | > 100 µM (inactive) | > 100 µM (inactive) | – | > 100 µM (inactive) | > 100 µM (inactive) | > 100 µM (inactive) | > 100 µM (inactive) | > 100 µM (inactive) | > 100 µM (inactive) | > 100 µM (inactive)
CCCCCCC(=O)OC[n+]1ccc2c(C)c3[nH]c4ccccc4c3c(C)c2c1 | – | 0.785 µM (active) | 1 µM (active) | 0.347 µM (active) | 0.582 µM (active) | 0.34 µM (active) | 0.376 µM (active) | 1.71 µM (inactive) | 1.79 µM (inactive) | 0.106 µM (active) | 0.646 µM (active) | 0.0728 µM (active) | – | 1.06 µM (active) | 1.29 µM (inactive) | 0.474 µM (active) | 0.537 µM (active) | –
O=C(NO)C12C3C4C1C1C2C3C41C(=O)NO (stereo not given) | > 100 µM (inactive) | 37.2 µM (inactive) | > 100 µM (inactive) | > 100 µM (inactive) | > 100 µM (inactive) | > 100 µM (inactive) | > 100 µM (inactive) | > 100 µM (inactive) | – | > 100 µM (inactive) | > 100 µM (inactive) | > 100 µM (inactive) | > 100 µM (inactive) | – | > 100 µM (inactive) | > 100 µM (inactive) | > 100 µM (inactive) | > 100 µM (inactive)
C[C@@H](NC1CCC[C@@H]1O)c1ccccc1 (stereo not given in full) | > 100 µM (inactive) | > 100 µM (inactive) | > 100 µM (inactive) | > 100 µM (inactive) | > 100 µM (inactive) | > 100 µM (inactive) | > 100 µM (inactive) | > 100 µM (inactive) | > 100 µM (inactive) | > 100 µM (inactive) | – | > 100 µM (inactive) | > 100 µM (inactive) | > 100 µM (inactive) | > 100 µM (inactive) | > 100 µM (inactive) | > 100 µM (inactive) | > 100 µM (inactive)
CC(=O)Oc1ccc(O)c(O)c1C/C=C(\C)CC/C=C(\C)CC/C=C(\C)CCC=C(C)C [TETRAPRENYLPHENOLSUILLIN] | 0.157 µM (active) | 0.284 µM (active) | 1.2 µM (inactive) | 0.338 µM (active) | 0.946 µM (active) | 0.392 µM (active) | 0.287 µM (active) | 0.596 µM (active) | 0.65 µM (active) | 0.246 µM (active) | 0.407 µM (active) | 0.365 µM (active) | 0.476 µM (active) | 0.426 µM (active) | 1.51 µM (inactive) | 0.34 µM (active) | 0.247 µM (active) | –
